Experimental data published in patent US11013730B1, “Composition comprising selenazol or thiazalone derivatives and silver and method of treatment therewith” (Thioredoxin Systems AB, priority 2014, dated 2021).
In brackets after ≈: the same amount, converted by molar mass. Several values for one entry are separate records, joined by “and”; a condition that tells them apart may be missing. Equal values may be shown once. Read-outs that look alike come from different tables or passages of the source.

What was measured:
E. coli Trx-(SH)2 = E. coli Trx-(SH)2 (Escherichia coli, UniProt P0AA25); conditions: fluorescence spectroscopy, ref (32); cited from earlier work
E. coli TrxR [1] = molecular target: T1, E. coli TrxR (Escherichia coli, UniProt P0A9P4); assay: E. coli TrxR inhibition, thioredoxin dependent DTNB reduction assay; assay type: biochemical
Description: Further we examined the effect of ebselen in the reduction of disulfide by E. coli Trx and TrxR using both DTNB and insulin as substrates.
All the benzisoselenazol-3(2H)-one and bisbenzisoselenazol-3(2H)-one derivatives were tested as potential E. coli TrxR inhibitors by standard DTNB assay. […] The reactions were started by adding 1 mM DTNB to the mixture of 100 nM TrxR, 2 μM Trx, 240 μM NADPH, and different concentration of inhibitor (1-40 μM). […] The reactions were started by adding 6 nM TrxR at room temperature. Inhibition constants (Ki) for all the compounds were measured from Dixon plot, which plots 1/v versus […], I=Inhibitor concentration).

Mammalian TrxR [2] = molecular target: T2, Mammalian TrxR (Homo sapiens, UniProt Q16881); conditions: from ref (3) / (32); cited from earlier work
T2 sequence (Q16881 151-649 limits assumed): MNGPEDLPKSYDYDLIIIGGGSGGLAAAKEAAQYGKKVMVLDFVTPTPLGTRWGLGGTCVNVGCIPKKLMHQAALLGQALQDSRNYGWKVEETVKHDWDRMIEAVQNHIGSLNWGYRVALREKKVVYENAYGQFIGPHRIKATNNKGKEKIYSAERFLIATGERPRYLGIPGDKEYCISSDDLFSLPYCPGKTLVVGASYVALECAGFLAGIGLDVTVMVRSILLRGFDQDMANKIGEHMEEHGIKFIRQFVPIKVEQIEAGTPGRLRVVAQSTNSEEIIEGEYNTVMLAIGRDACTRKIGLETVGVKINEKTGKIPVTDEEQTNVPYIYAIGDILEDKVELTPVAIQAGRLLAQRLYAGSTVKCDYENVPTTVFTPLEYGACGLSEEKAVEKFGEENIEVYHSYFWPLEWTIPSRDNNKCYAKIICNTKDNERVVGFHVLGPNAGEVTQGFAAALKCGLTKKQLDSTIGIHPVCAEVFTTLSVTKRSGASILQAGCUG

E. coli TrxR [3] = molecular target: T1, E. coli TrxR; assay: E. coli TrxR inhibition, thioredoxin dependent DTNB reduction assay; assay type: biochemical; conditions: Lineweaver-Burk plots, reduction of DTNB, read-out: Ki (dissociation constant of inhibitor-TrxR complex), competitive inhibition of E. coli TrxR
Mammalian TrxR [4] = molecular target: T2, Mammalian TrxR; assay: Kinetic parameters with mammalian TrxR; assay type: biochemical; conditions: sulphur analogues
E. coli TrxR [5] = molecular target: T1, E. coli TrxR; assay: Kinetic parameters (substrate) with E. coli TrxR; assay type: biochemical
Staphylococcus aureus = conditions: cited from earlier work
E. coli = assay type: cell-based, Escherichia coli
H. pylori TrxR = H. pylori TrxR (Helicobacter pylori, UniProt P56431); assay: H. pylori TrxR activity, insulin reduction assay; conditions: 4, 20, and 40 μM
H. pylori strains = assay: MIC against H. pylori strains
Gor DHB4 E. coli = assay: Inhibition of bacterial growth (MIC), Gor DHB4 E. coli; conditions: Escherichia coli, DHB4E.COLI, read-out: MIC for Gor DHB4 E. coli
Description: (§1) Here E. coli DHB4 strains wt, gshA^−, gor^−, oxyR^− were used as the model to test the antibiotics activity of these ebselen derivatives.

E. coli TrxR [6] = molecular target: T1, E. coli TrxR; assay: TrxR activity in bacterial cell lysates, insulin coupled reduction endpoint assay; assay type: cell-based; conditions: 5 μM silver and 2, 5, 10 μM ebselen, 1 h
Description: The reaction continued for 30 min. […] A sample without E. coli Trx was used as the background control.

HEK 293T cells = HEK 293T cells growth (cytotoxicity); assay type: cell-based; conditions: Homo sapiens, HEK-293T; read-out: IG50 for HEK 293T
gshA^− DHB4 E. coli = assay: Inhibition of bacterial growth (MIC), gshA^− DHB4 E. coli
Description: as §1

GSH = GSH amount in bacterial cell lysates; conditions: wt E. coli, 5 μM silver and 10 μM ebselen, 1 h
Description: To analyze the TrxR activity and GSH amount in the bacteria, the cells were harvested by centrifugation and washed with PBS, then the cells were resuspended in TE buffer (50 mM Tris-HCl, pH 7.5, 1 mM EDTA) containing protease inhibitor cocktail and lysed by sonication. The cell lysates were obtained by centrifugation at 13,000 rpm for 30 min and the protein concentration were measured by Lowry protein assay (Bio-Rad DC).
To measure GSH levels, 10 μg of the cell lysates was added in the solution containing 50 nM GR, 50 mM Tris-HCl, pH 7.5, 200 μM NADPH, 1 mM EDTA, 1 mM DTNB. The absorbance at 412 nm was measured for 5 min.
GSH amounts were measured as the description in material and methods.

E. coli gshA^− strain = conditions: with 5 μM silver, 1 h
Description: (§2) The absorbance at 600 nm were measured to detect the growth of the bacteria.
(§3) E. coli strains were cultured until the OD600 got around to 0.4, and then the bacteria were treated with 5 μM silver and different concentrations of ebselen (2, 5, 10 μM).

[7] = molecular target: E. coli ribonucleotide reductase (Escherichia coli, UniProt P00452); assay: Inhibition of E. coli ribonucleotide reductase; assay type: biochemical; conditions: data not shown
wild type DHB4 E. coli = assay: Inhibition of bacterial growth (MIC), wild type DHB4 E. coli; conditions: Escherichia coli, DHB4E.COLI, read-out: MIC for wild type DHB4 E. coli
Description: as §1

HeLa cells = conditions: 24 h
Description: RAW 264.7, J774, HEK 293T, Hela cells were cultured in DMEM medium (GIBCO) supplemented with 10% FCS, 100 units/ml penicillin, and 100 μg/ml streptomycin at 37° C. in a 5% CO2 incubator. The cells were seeded in 96 micro-well plates and grown till 70-80% confluency. The cells were treated with different combination of ebselen and silver for 24 h. The cell toxicity was detected by MTT assay (15). Data are means±SD of three independent experiments.
To check whether there are synergistic toxic effects on mammalian cells, the toxicity of combination of ebselen and silver towards HeLa cells was studied. […] Nearly confluent HeLa cells were treated with combination of indicating concentration of ebselen and its analogues and silver for 24 h. then the cell toxicity was detected by MTT assay.

recombinant rat TrxR = molecular target: T3, recombinant rat TrxR (Rattus norvegicus, UniProt O89049); assay: Inhibition of mammalian (recombinant rat) TrxR
T3 sequence (O89049 1-499): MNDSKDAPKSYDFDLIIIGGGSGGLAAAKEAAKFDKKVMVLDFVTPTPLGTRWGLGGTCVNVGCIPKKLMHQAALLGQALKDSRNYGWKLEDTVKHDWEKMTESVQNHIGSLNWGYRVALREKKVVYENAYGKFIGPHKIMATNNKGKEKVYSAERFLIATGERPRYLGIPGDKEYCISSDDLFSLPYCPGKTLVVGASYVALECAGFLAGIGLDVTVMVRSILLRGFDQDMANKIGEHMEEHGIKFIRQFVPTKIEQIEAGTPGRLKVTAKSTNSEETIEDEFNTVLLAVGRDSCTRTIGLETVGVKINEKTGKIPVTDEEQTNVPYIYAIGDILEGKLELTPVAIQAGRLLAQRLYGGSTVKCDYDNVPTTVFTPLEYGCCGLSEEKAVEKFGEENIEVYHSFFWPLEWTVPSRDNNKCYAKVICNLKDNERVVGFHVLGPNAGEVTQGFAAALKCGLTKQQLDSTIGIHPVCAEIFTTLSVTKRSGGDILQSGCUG

[8] = Glutathione peroxidase (GPx) activity of the compounds; assay type: biochemical; conditions: relative; EbSe 6 = 1
wild type (wt) E. coli = assay: Growth of wild type E. coli culture treated 1 h with silver and ebselen; conditions: with 5 μM silver
Description: as §2, §3

E. coli NHHJ = conditions: cited from earlier work
Bacillus subtilis = assay: Growth inhibition of Bacillus subtilis by ebselen and silver, A600
Description: Bacterial growth was determined as A600 after 16 h at 37° C.

[9] = tested on: Mycobacterium tuberculosis; assay: Sensitivity of Mycobacterium tuberculosis to ebselen, radiometric BACTEC 460 system; assay type: cell-based; conditions: medium with 5 g/l albumin, estimate
Helicobacter pylori = assay: Bactericidal effects on Helicobacter pylori; assay type: cell-based; conditions: read-out: minimal bactericidal concentration (MBC)
Text: The inhibition of ebselen on H. pylori was therefore investigated. […] Taken together, our results strongly support that the inhibition of ebselen on these glutathione deficient bacteria is due to the oxidization of thioredoxin system by ebselen.

T1 sequence (P0A9P4 whole entry): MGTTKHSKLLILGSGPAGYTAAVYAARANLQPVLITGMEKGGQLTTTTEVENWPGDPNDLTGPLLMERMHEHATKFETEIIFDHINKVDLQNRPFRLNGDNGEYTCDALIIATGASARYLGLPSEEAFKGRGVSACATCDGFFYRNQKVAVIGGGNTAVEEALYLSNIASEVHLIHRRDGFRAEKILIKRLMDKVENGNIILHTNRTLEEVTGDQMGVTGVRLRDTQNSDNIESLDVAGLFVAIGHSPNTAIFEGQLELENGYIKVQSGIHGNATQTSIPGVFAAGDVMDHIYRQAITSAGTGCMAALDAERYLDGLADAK
Chain of E. coli Trx-(SH)2 (P0AA25 whole entry): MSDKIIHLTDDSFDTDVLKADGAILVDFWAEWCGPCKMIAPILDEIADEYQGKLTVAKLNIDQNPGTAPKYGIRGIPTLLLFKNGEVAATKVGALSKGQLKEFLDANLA
Chain of E. coli ribonucleotide reductase (P00452 whole entry): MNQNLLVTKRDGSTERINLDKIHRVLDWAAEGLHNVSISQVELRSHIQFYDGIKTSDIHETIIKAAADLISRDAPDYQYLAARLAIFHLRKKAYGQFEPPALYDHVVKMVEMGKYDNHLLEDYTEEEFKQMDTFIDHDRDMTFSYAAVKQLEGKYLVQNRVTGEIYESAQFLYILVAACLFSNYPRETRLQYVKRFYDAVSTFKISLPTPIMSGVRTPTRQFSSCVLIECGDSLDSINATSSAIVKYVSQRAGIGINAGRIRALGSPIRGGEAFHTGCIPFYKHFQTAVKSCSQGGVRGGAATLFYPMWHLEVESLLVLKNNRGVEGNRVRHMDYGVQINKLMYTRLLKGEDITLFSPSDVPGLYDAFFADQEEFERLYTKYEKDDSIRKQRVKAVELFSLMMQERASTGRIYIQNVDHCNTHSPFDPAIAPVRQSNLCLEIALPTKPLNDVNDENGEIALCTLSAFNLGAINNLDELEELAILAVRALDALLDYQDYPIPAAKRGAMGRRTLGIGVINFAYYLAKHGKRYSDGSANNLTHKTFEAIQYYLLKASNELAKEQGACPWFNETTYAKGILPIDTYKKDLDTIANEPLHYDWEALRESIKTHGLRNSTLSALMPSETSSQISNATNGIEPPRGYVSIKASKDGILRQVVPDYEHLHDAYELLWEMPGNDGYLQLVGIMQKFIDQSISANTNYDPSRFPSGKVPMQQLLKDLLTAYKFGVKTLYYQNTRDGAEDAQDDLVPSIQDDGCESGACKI
Chain of H. pylori TrxR (P56431 whole entry): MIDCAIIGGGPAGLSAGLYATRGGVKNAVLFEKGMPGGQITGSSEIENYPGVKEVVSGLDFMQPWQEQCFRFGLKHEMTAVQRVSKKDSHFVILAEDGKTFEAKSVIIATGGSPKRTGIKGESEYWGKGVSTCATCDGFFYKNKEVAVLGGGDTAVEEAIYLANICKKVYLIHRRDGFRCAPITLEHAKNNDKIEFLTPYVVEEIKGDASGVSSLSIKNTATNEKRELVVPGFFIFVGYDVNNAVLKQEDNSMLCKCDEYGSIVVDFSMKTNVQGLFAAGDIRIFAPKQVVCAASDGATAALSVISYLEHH

For `O=C(Nc1ccccc1)c1ccccc1[Se][Se]c1ccccc1C(=O)Nc1ccccc1` [(EbSe)2], the “second-order rate constant of direct reduction by reduced E. coli Trx” value (E. coli Trx-(SH)2) is listed as 1700 M⁻¹ s⁻¹, the “inhibition of E. coli TrxR (in words)” value (E. coli TrxR [1]) is listed as “strongly inhibited” and the Km (Mammalian TrxR [2]) is listed as 40 µM. The “kcat, mammalian TrxR” value (Mammalian TrxR [2]) was 79 min⁻¹ and the Ki (E. coli TrxR [3]) was 460 ± 50 nM.

With `O=c1c2ccccc2sn1-c1ccccc1` [EbS] the “inhibition of E. coli TrxR (in words)” value (E. coli TrxR [1]) was “not inhibitors”, the Km (Mammalian TrxR [4]) was 2500 nM and the “kcat, mammalian TrxR” value (Mammalian TrxR [4]) was 1400 min⁻¹. For the same compound, the “kcat, E. coli TrxR” value (E. coli TrxR [5]) was 700 min⁻¹, the “antibacterial activity (in words)” value (Staphylococcus aureus; ref (10)) was “lost the antibacterial activity” and the “enhancement of the toxicity of silver toward bacteria” value (E. coli) was “less enhancement”. The “H. pylori TrxR activity” value (H. pylori TrxR) was “inhibited”, the MIC (H. pylori strains; NCTC11637 strain) was 1.56 µg/mL (≈ 6.86 µM) and the MIC (H. pylori strains; strain YS-16) was 0.39 µg/mL (≈ 1.72 µM).

In the case of `O=c1c2ccccc2[se]n1-c1ccccc1` [EbSe 6, 2-phenyl-1,2-benzisoselenazol-3(2H)-one], the “second-order rate constant of direct reduction by reduced E. coli Trx” value (E. coli Trx-(SH)2) is listed as 2e+07 M⁻¹ s⁻¹, the “inhibition of E. coli TrxR (in words)” value (E. coli TrxR [1]) is listed as “strongly inhibited” and the IC50 (E. coli TrxR [1]; DTNB assay, 100 nM TrxR, 2 μM Trx, 240 μM NADPH, 1 mM DTNB, read-out: IC50 for E. coli TrxR) is listed as 6 µM. The Ki (E. coli TrxR [1]; Dixon plot, 6 nM TrxR, Trx 1, 2 or 4 μM, read-out: Ki for E. coli TrxR) was 300 nM, the MIC (Gor DHB4 E. coli) was 15 µM (≈ 4.11 µg/mL) and the “TrxR activity in bacterial lysates” value (E. coli TrxR [6]) was “not affected”. For the same compound, the IC50 (HEK 293T cells) was 120 µM, the “sensitivity of gshA^− / gor^− strains compared with wild type” value (gshA^− DHB4 E. coli; E. coli strains wt, gshA^−, gor^−) was “Wild type bacteria were more resistant than gor^− and gshA^− strains” and the MIC (gshA^− DHB4 E. coli; Escherichia coli, read-out: MIC for gshA^− DHB4 E. coli) was 26 µM (≈ 7.13 µg/mL). The “GSH amount in cell lysate” value (GSH) was “obviously lower than the others”, the concentration inhibiting growth (Staphylococcus aureus; Staphylococcus aureus 209P) was 0.20 µg/mL and the “MIC for 90% of S. aureus strains” value (Staphylococcus aureus) was 1.56 μg per ml. For the same compound, the “mode of action on S. aureus” value (Staphylococcus aureus) was “bacteriocidal”, the “sensitivity of Staphyloccus aureus relative to E. coli” value (Staphylococcus aureus) was 100 fold and the concentration inhibiting growth (Staphylococcus aureus; methicillin resistant Staphylococcus aureus) was 0.20 μg per ml. For the same compound, the “ebselen concentration that inhibited growth” value (E. coli gshA^− strain) was 2 µM, the “inhibition of E. coli ribonucleotide reductase” value [7] was “effective direct inhibitor” and the “effect of ebselen alone on bacterial growth” value (E. coli; 2, 4, 8 μM, LB medium, 16 h) was “did not show the inhibition effects”. For the same compound, the MIC (wild type DHB4 E. coli) was 40 µM (≈ 11 µg/mL), the “synergistic toxicity with silver” value (HeLa cells; 5 μM) was “did not show synergistic of toxicity” and the “synergistic toxicity with silver” value (HeLa cells; 20 μM, silver at high concentration) was “enhanced the toxicity of silver”. For the same compound, the IC50 (recombinant rat TrxR) was over 10 µM, the “inhibition of mammalian TrxR (in words)” value (recombinant rat TrxR) was “no inhibitory activity” and the “Relative GPx activity” value [8] was 1. For the same compound, the “ebselen concentration that inhibited growth” value (wild type (wt) E. coli) was 10 µM, the “concentration required to inhibit growth” value (E. coli NHHJ) was “up to 50 μg per ml” and the Km (Mammalian TrxR [2]) was 2.5 µM. For the same compound, the “kcat, mammalian TrxR” value (Mammalian TrxR [2]) was 588 min⁻¹, the “effect on growth of B. subtilis” value (Bacillus subtilis; ebselen at 2 μM alone) was “did not inhibit the growth” and the “effect on antibacterial activity of silver” value (Bacillus subtilis; ebselen at 2 μM with silver) was “strongly helped the antibacterial activity of silver”. The MIC [9] was under 20 µg/mL, the MBC (Helicobacter pylori; macrolide resistant strains) was 12.5 µg/mL (≈ 45.6 µM) and the MBC (Helicobacter pylori; two macrolide sensitive strains) was 3.12 µg/mL (≈ 11.4 µM). For the same compound, the Ki (E. coli TrxR [3]; listed as ebselen) was 150 nM and 140 nM, the MIC (H. pylori strains; Helicobacter pylori) was 3.13 µg/mL (≈ 11.4 µM) and the MIC (H. pylori strains; Helicobacter pylori, NCTC11637) was 3.13 µg/mL (≈ 11.4 µM).
